# What was measured:
# [1] = tested on: HT-29 (colorectal adenocarcinoma); test: Cell growth assay (Trypan blue), HT-29 cells; format: cell-based, human; details: 72 h
# Protocol: (§1) A2780 (human ovarian carcinoma) and HT-29 (human colorectal adenocarcinoma) were grown in RPMI 1640 (Sigma Chemical Co., St. Louis, MO, USA), and MSTO-211H (human biphasic mesothelioma) were grown in RPMI 1640 (Sigma Chemical Co.) supplemented with 2.38 g/L Hepes, 0.11 g/L pyruvate sodium, and 2.5 g/L glucose. Then, 1.5 g/L NaHCO3, 10% heat-inactivated fetal calf serum (Biowest), 100 U/mL penicillin, 100 μg/mL streptomycin, and 0.25 μg/mL amphotericin B (Sigma Chemical Co.) were added to the media. The cells were cultured at 37 °C in a moist atmosphere of 5% carbon dioxide in air. Cells (2.5–3 × 10^4) were seeded into each well of a 24-well cell culture plate. After incubation for 24 h, various concentrations of the test agents were added to the complete medium and incubated for a further 72 h. A Trypan blue assay was performed to determine cell viability. Cytotoxicity data were expressed as IC50 values, i.e., the concentration of the test compound able to induce a 50% reduction in cell number compared with control cultures.
# [2] = tested on: A2780 (ovarian carcinoma); test: Cell growth assay (Trypan blue), A2780 cells; format: cell-based, human; details: 72 h, Trypan blue
# Protocol: as §1
# [3] = tested on: MSTO-211H (biphasic mesothelioma); test: Cell growth assay (Trypan blue), MSTO-211H cells; format: cell-based, human; details: for IC50: 72 h, Trypan blue
# Protocol: as §1
# [4] = tested on: CEM (human T-lymphocyte cells); test: Cell growth assay, CEM cells; format: cell-based; details: racemic compounds, 72 h, Coulter counter
# Protocol: (§2) HeLa (human cervix carcinoma) and CEM (human T-lymphoblast) were grown in Dulbecco’s modified Eagle’s medium (DMEM; Gibco, Carlsbad, CA, USA), supplemented with 0.01 M Hepes (Gibco) and 1 mM sodium pyruvate (Gibco) in a humidified 5% CO2 incubator at 37 °C. HMEC-1 (human microvascular endothelial cells) was maintained in Dulbecco’s modified Eagle’s medium (DMEM)/low glucose containing glutamine (2 mM). The media were supplemented with 10% fetal bovine serum (FBS, Gibco), penicillin ([…]), streptomycin ([…]), and amphotericin B ([…]). CEM cells were seeded in 96-well plates at 60,000 cells/well in the presence of different concentrations of the compounds, and allowed to proliferate for 72 h. HeLa cells were seeded in 96-well plates at 15,000 cells/well in the presence of different concentrations of the compounds. After 4 days of incubation, the cells were trypsinized and counted. HMEC-1 cells were seeded in 48-well plates at 20,000 cells/well. After 24 h, the compounds were added at different concentrations. The cells were allowed to proliferate for 4 days in the presence of the compounds, trypsinized, and counted. All cells were counted by means of a Coulter counter (Analis, Belgium).
# [5] = tested on: HeLa (human cervix carcinoma cells); test: Cell growth assay, HeLa cells; format: cell-based; details: 96 h, racemic compounds, 4 days, Coulter counter
# Protocol: as §2
# [6] = tested on: HMEC-1 (human dermal microvascular endothelial cells); test: Cell growth assay, HMEC-1 cells; format: cell-based; details: HMEC-1, 96 h, racemic compounds, 4 days, Coulter counter
# Protocol: as §2
# [7] = target: quinone reductase 2 (QR2); design: method as in PMID 22716080, PMID 16765324; details: read-out: QR2 inhibitory activity IC50; cited from earlier work
# [8] = Homo sapiens, HT-29, pure enantiomers
# [9] = Homo sapiens, A2780, 72 h, pure enantiomers
# [10] = Homo sapiens, MSTO-211H, pure enantiomers
# [11] = Homo sapiens, HT-29, racemic compounds
# [12] = Homo sapiens, A2780, 72 h, racemic compounds
# [13] = Homo sapiens, MSTO-211H, racemic compounds
"IC50 [1, 8]","IC50 [2, 9]","IC50 [3, 10]","IC50 [1, 11]","IC50 [2, 12]","IC50 [3, 13]",melting point,IC50 ([1]; pure enantiomers),IC50 ([2]; pure enantiomers),IC50 ([3]; pure enantiomers),Compound,cytotoxic effect on MSTO-211H (in words) ([3]; pure enantiomers),IC50 [4],IC50 [5],IC50 [6],IC50 [7]
> 20 µM,15.2 ± 2.3 µM,> 20 µM,,,,,,,,"Cc1ccc(O)c(CN[C@@H]2CCCc3ccc(C)nc32)c1 [(R)-2b, 4-methyl-2-(((2-methyl-5,6,7,8-tetrahydroquinolin-8-yl)amino)methyl)phenol]",inactive,,,,
,,,74 ± 3 µM,36 ± 4 µM,77 ± 7 µM,94.3 to 95.5 °C,,,,"Cc1ccc2c(n1)C(NCc1cc3c4c(c1O)CCCN4CCC3)CCC2 (centres unmarked) [Compound 6b, 9-(((2-methyl-5,6,7,8-tetrahydroquinolin-8-yl)amino)methyl)-2,3,6,7-tetrahydro-1H,5H-pyrido[3 ,2,1-ij]quinolin-8-ol]",,77 ± 32 µM,> 100 µM,81 ± 26 µM,
,,,57 ± 6 µM,42 ± 5 µM,28 ± 4 µM,89.2 to 91.1 °C,,,,"Cc1ccc2c(n1)C(NCc1cccc(C)c1O)CCC2 (centres unmarked) [Compound 1b, 2-methyl-6-(((2-methyl-5,6,7,8-tetrahydroquinolin-8-yl)amino)methyl)phenol]",,66 ± 47 µM,93 ± 10 µM,63 ± 2 µM,
,,,,,,,> 20 µM,11.5 ± 2.6 µM,> 20 µM,"Cc1ccc(O)c(CN[C@H]2CCCc3ccc(C)nc32)c1 [(S)-2b, 4-methyl-2-(((2-methyl-5,6,7,8-tetrahydroquinolin-8-yl)amino)methyl)phenol]",inactive,,,,
,,,,,,,> 20 µM,17.2 ± 3 µM,> 20 µM,"Cc1ccc2c(n1)[C@@H](/N=C/c1ncc[nH]1)CCC2 [(S)-5a, (E)-1-(1H-imidazol-2-yl)-N-(2-methyl-5,6,7,8-tetrahydroquinolin-8-yl)methanimine]",ineffective,,,,
,,,73 ± 6 µM,38 ± 7 µM,44 ± 5 µM,86.7 to 88.1 °C,,,,"Cc1ccc2c(n1)C(NCc1ncc[nH]1)CCC2 (centres unmarked) [Compound 5b, N-((1H-imidazol-2-yl)methyl)-2-methyl-5,6,7,8-tetrahydroquinolin-8-amine]",,51 ± 13 µM,71 ± 3 µM,53 µM,
,,,> 100 µM,> 100 µM,95 ± 5 µM,101.8 to 103.4 °C,,,,"Cc1ccc(O)c(/C=N/C2CCCc3ccc(C)nc32)c1 (centres unmarked) [Compound 2a, (E)-4-methyl-2-(((2-methyl-5,6,7,8-tetrahydroquinolin-8-yl)imino)methyl)phenol]",,> 100 µM,> 100 µM,> 100 µM,
,,,> 100 µM,> 100 µM,> 100 µM,90.3 to 92.2 °C,,,,"Cc1ccc2c(n1)C(NCc1cn(C)cn1)CCC2 (centres unmarked) [Compound 4b, 2-methyl-N-((1-methyl-1H-imidazol-4-yl)methyl)-5,6,7,8-tetrahydroquinolin-8-amine]",,> 100 µM,> 100 µM,89 ± 2 µM,
,,,42 ± 6 µM,11 ± 3 µM,15 ± 3 µM,87.8 to 89.2 °C,,,,"Cc1ccc2c(n1)C(NCc1ccccn1)CCC2 (centres unmarked) [Compound 3b, 2-methyl-N-(pyridin-2-ylmethyl)-5,6,7,8-tetrahydroquinolin-8-amine]",,> 100 µM,> 100 µM,> 100 µM,
,,,83 ± 5 µM,65 ± 9 µM,69 ± 3 µM,102.2 to 103.8 °C,,,,"Cc1ccc2c(n1)C(/N=C/c1cccc(C)c1O)CCC2 (centres unmarked) [Compound 1a, (E)-2-methyl-6-(((2-methyl-5,6,7,8-tetrahydroquinolin-8-yl)imino)methyl)phenol]",,> 100 µM,> 100 µM,> 100 µM,
,,,42 ± 6 µM,16 ± 2 µM,30 ± 8 µM,102.8 to 104.3 °C,,,,"Cc1ccc2c(n1)C(/N=C/c1ccccn1)CCC2 (racemic) [Compound 3a, (E)-N-(2-methyl-5,6,7,8-tetrahydroquinolin-8-yl)-1-(pyridin-2-yl)methanimine]",,33 ± 7 µM,34 ± 6 µM,77 ± 32 µM,
> 20 µM,11.7 ± 2 µM,14.9 ± 1.4 µM,,,,,,,,"Cc1ccc2c(n1)[C@H](/N=C/c1ccccn1)CCC2 [(R)-3a, (E)-N-(2-methyl-5,6,7,8-tetrahydroquinolin-8-yl)-1-(pyridin-2-yl)methanimine]",,,,,
,,,42 ± 8 µM,11 ± 2 µM,14 ± 1 µM,103.2 to 104.5 °C,,,,"Cc1ccc2c(n1)C(/N=C/c1cn(C)cn1)CCC2 (centres unmarked) [Compound 4a, (E)-1-(1-methyl-1H-imidazol-4-yl)-N-(2-methyl-5,6,7,8-tetrahydroquinolin-8-yl)methanimine]",,> 100 µM,> 100 µM,> 100 µM,
,,,70 ± 2 µM,13 ± 3 µM,31 ± 7 µM,101.2 to 102.6 °C,,,,"Cc1ccc2c(n1)C(/N=C/c1ncc[nH]1)CCC2 (racemic) [Compound 5a, (E)-1-(1H-imidazol-2-yl)-N-(2-methyl-5,6,7,8-tetrahydroquinolin-8-yl)methanimine]",,43 ± 7 µM,37 ± 9 µM,57 ± 4 µM,
,,,46 ± 7 µM,36 ± 4 µM,25 ± 11 µM,104.2 to 105.8 °C,,,,"Cc1ccc2c(n1)C(/N=C/c1cc3c4c(c1O)CCCN4CCC3)CCC2 (centres unmarked) [Compound 6a, (E)-9-(((2-methyl-5,6,7,8-tetrahydroquinolin-8-yl)imino)methyl)-2,3,6,7-tetrahydro-1H,5H-pyrido [3,2,1-ij]quinolin-8-ol]",,64 ± 32 µM,> 100 µM,82 ± 4 µM,
,,,,,,,,,,"CN1C(=O)c2cc(C(N)=O)nc3c(N)c(Cl)c(N)c1c23 [Compound 4, ammosamide B]",,,,,0.061 µM
,,,,,,,> 20 µM,11.4 ± 0.4 µM,11.8 ± 2.3 µM,"Cc1ccc2c(n1)[C@@H](/N=C/c1ccccn1)CCC2 [(S)-3a, (E)-N-(2-methyl-5,6,7,8-tetrahydroquinolin-8-yl)-1-(pyridin-2-yl)methanimine]",,,,,
,,,,,,,,,,CNc1c(Cl)c(N)c2c3c(cc(C(N)=O)nc13)C(=O)N2C [Compound 5],,,,,0.0041 µM
,,,62 ± 8 µM,25 ± 5 µM,35 ± 10 µM,89.5 to 90.8 °C,,,,"Cc1ccc(O)c(CNC2CCCc3ccc(C)nc32)c1 (racemic) [Compound 2b, 4-methyl-2-(((2-methyl-5,6,7,8-tetrahydroquinolin-8-yl)amino)methyl)phenol]",,23 ± 4 µM,75 ± 11 µM,60 ± 2 µM,
